{"source": "BindingDB's records for doi:10.1186/1472-6769-1-3", "about": "(Kimmel Cancer Center, 2001)", "molecular_target": "Bis(5'-adenosyl)-triphosphatase (Homo sapiens, UniProt P49789)", "sequence (P49789 whole entry)": "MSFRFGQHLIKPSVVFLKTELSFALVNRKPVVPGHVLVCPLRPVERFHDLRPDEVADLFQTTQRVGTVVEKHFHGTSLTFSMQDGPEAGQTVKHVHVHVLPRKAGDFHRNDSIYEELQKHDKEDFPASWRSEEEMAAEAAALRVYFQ", "assay": "Enzyme Inhibition Assay", "from_the_text": "Inhibition assay using Fhit with ApppBODIPY."}
{"smiles": "Nc1ncnc2c1ncn2C1O[C@H](COP(=O)(O)OCC(COP(=O)(O)OCC2O[C@@H](n3cnc4c(N)ncnc43)[C@H](O)[C@@H]2O)OP(=O)(O)O)[C@@H](O)[C@H]1O", "note": "(stereo partly specified) [AppppA analog, 17 (X=O)]", "values": [{"measurement": "Ki", "result": 420, "unit": "nM"}]}
{"smiles": "CC(COP(=O)(S)OCC1OC(n2cnc3c(N)ncnc32)C(O)C1O)COP(O)(=S)OCC1OC(n2cnc3c(N)ncnc32)C(O)C1O", "note": "(stereo unspecified) [AppppA analog, 7 (X=S)]", "values": [{"measurement": "Ki", "result": 76000, "unit": "nM"}]}
{"smiles": "Nc1ncnc2c1ncn2C1OC(COP(=O)(S)SCCCSP(O)(=S)OCC2OC(n3cnc4c(N)ncnc43)C(O)C2O)C(O)C1O", "note": "(stereo unspecified) [AppppA analog, 11 (X=S)]", "values": [{"measurement": "Ki", "result": 5200, "unit": "nM"}]}
{"smiles": "Nc1ncnc2c1ncn2C1OC(COP(=O)(S)OCC(N)COP(O)(=S)OCC2OC(n3cnc4c(N)ncnc43)C(O)C2O)C(O)C1O", "note": "(stereo unspecified) [AppppA analog, 8 (X=S)]", "values": [{"measurement": "Ki", "result": 3000, "unit": "nM"}]}
{"smiles": "Nc1ncnc2c1ncn2C1OC(COP(=O)(S)OCC(COP(=O)(O)S)(COP(=O)(O)S)COP(O)(=S)OCC2OC(n3cnc4c(N)ncnc43)C(O)C2O)C(O)C1O", "note": "(stereo unspecified) [AppppA analog, 14 (X=S)]", "values": [{"measurement": "Ki", "result": 700, "unit": "nM"}]}
{"smiles": "Nc1ncnc2c1ncn2C1O[C@H](COP(O)(=S)OC=P(O)(O)COP(=O)(S)OCC2O[C@@H](n3cnc4c(N)ncnc43)[C@H](O)[C@@H]2O)[C@@H](O)[C@H]1O", "note": "(stereo partly specified) [AppppA analog, 5 (X=S)]", "values": [{"measurement": "Ki", "result": 220, "unit": "nM"}]}
{"smiles": "Nc1ncnc2c1ncn2C1OC(COP(=O)(O)OCC(COP(=O)(O)OCC2O[C@@H](n3cnc4c(N)ncnc43)[C@H](O)[C@@H]2O)(COP(=O)(O)OCC2O[C@@H](n3cnc4c(N)ncnc43)[C@H](O)[C@@H]2O)COP(=O)(O)OC[C@H]2OC(n3cnc4c(N)ncnc43)[C@H](O)[C@@H]2O)[C@H](O)[C@@H]1O", "note": "(stereo partly specified) [AppppA analog, 13 (X=O)]", "values": [{"measurement": "Ki", "result": 3200, "unit": "nM"}]}
{"smiles": "Nc1ncnc2c1ncn2C1OC(COP(=O)(S)OCCOP(O)(=S)OCC2OC(n3cnc4c(N)ncnc43)C(O)C2O)C(O)C1O", "note": "(stereo unspecified) [AppppA analog, 2 (X=S)]", "values": [{"measurement": "Ki", "result": 2600, "unit": "nM"}]}
{"smiles": "Nc1ncnc2c1ncn2C1OC(COP(=O)(S)OC(C(=O)O)C(OP(O)(=S)OCC2OC(n3cnc4c(N)ncnc43)C(O)C2O)C(=O)O)C(O)C1O", "note": "(stereo unspecified) [AppppA analog, 3 (X=S)]", "values": [{"measurement": "Ki", "result": 86000, "unit": "nM"}]}
{"smiles": "Nc1ncnc2c1ncn2C1OC(COP(=O)(S)OCC(COP(=O)(S)OCC2OC(n3cnc4c(N)ncnc43)C(O)C2O)(COP(=O)(S)OCC2OC(n3cnc4c(N)ncnc43)C(O)C2O)COP(O)(=S)OCC2OC(n3cnc4c(N)ncnc43)C(O)C2O)C(O)C1O", "note": "(stereo unspecified) [AppppA analog, 13 (X=S)]", "values": [{"measurement": "Ki", "result": 65, "unit": "nM"}]}
{"smiles": "Nc1ncnc2c1ncn2C1OC(COP(=O)(S)OCCCOP(O)(=S)OCC2OC(n3cnc4c(N)ncnc43)C(O)C2O)C(O)C1O", "note": "(stereo unspecified) [AppppA analog, 9 (X=S)]", "values": [{"measurement": "Ki", "result": 230, "unit": "nM"}]}
{"smiles": "Nc1ncnc2c1ncn2C1OC(COP(=O)(O)OCC(COP(=O)(O)O)(COP(=O)(O)OCC2O[C@@H](n3cnc4c(N)ncnc43)[C@H](O)[C@@H]2O)COP(=O)(O)OC[C@H]2OC(n3cnc4c(N)ncnc43)[C@H](O)[C@@H]2O)[C@H](O)[C@@H]1O", "note": "(stereo partly specified) [AppppA analog, 12 (X=O)]", "values": [{"measurement": "Ki", "result": 1500, "unit": "nM"}]}
{"smiles": "Nc1ncnc2c1ncn2C1OC(COP(=O)(S)OCC(O)C(O)COP(O)(=S)OCC2OC(n3cnc4c(N)ncnc43)C(O)C2O)C(O)C1O", "note": "(stereo unspecified) [AppppA analog, 4 (X=S)]", "values": [{"measurement": "Ki", "result": 86000, "unit": "nM"}]}
{"smiles": "Nc1ncnc2c1ncn2C1O[C@H](COP(=O)(O)OCP(O)(O)=COP(=O)(O)OCC2O[C@@H](n3cnc4c(N)ncnc43)[C@H](O)[C@@H]2O)[C@@H](O)[C@H]1O", "note": "(stereo partly specified) [AppppA analog, 5 (X=O)]", "values": [{"measurement": "Ki", "result": 1500, "unit": "nM"}]}
{"smiles": "Nc1ncnc2c1ncn2C1O[C@H](COP(=O)(S)NCC(CNP(O)(=S)OCC2O[C@@H](n3cnc4c(N)ncnc43)[C@H](O)[C@@H]2O)OP(=O)(S)OC[C@H]2OC(n3cnc4c(N)ncnc43)[C@H](O)[C@@H]2O)[C@@H](O)[C@H]1O", "note": "(stereo partly specified) [AppppA analog, 16 (X=S)]", "values": [{"measurement": "Ki", "result": 2700, "unit": "nM"}]}
{"smiles": "Nc1ncnc2c1ncn2C1OC(COP(=O)(S)OCC(COP(O)(=S)OCC2OC(n3cnc4c(N)ncnc43)C(O)C2O)OP(=O)(O)S)C(O)C1O", "note": "(stereo unspecified) [AppppA analog, 17 (X=S)]", "values": [{"measurement": "Ki", "result": 110, "unit": "nM"}]}
{"smiles": "Nc1ncnc2c1ncn2C1O[C@H](COP(=O)(O)OCC(COP(=O)(O)OCC2O[C@@H](n3cnc4c(N)ncnc43)[C@H](O)[C@@H]2O)OP(=O)(O)OC[C@H]2OC(n3cnc4c(N)ncnc43)[C@H](O)[C@@H]2O)[C@@H](O)[C@H]1O", "note": "(stereo partly specified) [AppppA analog, 15 (X=O)]", "values": [{"measurement": "Ki", "result": 1500, "unit": "nM"}]}
{"smiles": "Nc1ncnc2c1ncn2C1OC(COP(=O)(S)OCC(COP(O)(=S)OCC2OC(n3cnc4c(N)ncnc43)C(O)C2O)OP(=O)(S)OCC2OC(n3cnc4c(N)ncnc43)C(O)C2O)C(O)C1O", "note": "(stereo unspecified) [AppppA analog, 15 (X=S)]", "values": [{"measurement": "Ki", "result": 78, "unit": "nM"}]}
{"smiles": "Nc1ncnc2c1ncn2C1O[C@H](COP(=O)(O)OCC(COP(=O)(O)O)(COP(=O)(O)O)COP(=O)(O)OCC2O[C@@H](n3cnc4c(N)ncnc43)[C@H](O)[C@@H]2O)[C@@H](O)[C@H]1O", "note": "(stereo partly specified) [AppppA analog, 14 (X=O)]", "values": [{"measurement": "Ki", "result": 900, "unit": "nM"}]}
{"smiles": "Nc1ncnc2c1ncn2C1O[C@H](COP(=O)(S)NCCCNP(O)(=S)OCC2O[C@@H](n3cnc4c(N)ncnc43)[C@H](O)[C@@H]2O)[C@@H](O)[C@H]1O", "note": "(stereo partly specified) [AppppA analog, 10 (X=S)]", "values": [{"measurement": "Ki", "result": 3300, "unit": "nM"}]}
{"smiles": "Nc1ncnc2c1ncn2C1O[C@H](COP(=O)(O)OCC(O)COP(=O)(O)OCC2O[C@@H](n3cnc4c(N)ncnc43)[C@H](O)C2O)[C@@H](O)[C@H]1O", "note": "(stereo partly specified) [AppppA analog, 6 (X=O)]", "values": [{"measurement": "Ki", "result": 4700, "unit": "nM"}]}
